{"source": "patent US20250064093A1", "about": "“FERMENTED PH-INDEPENDENT SOLUTION SPOILAGE CONTROL IN FOOD SYSTEMS” (Third Wave Bioactives, LLC, priority 2023, published 2025)", "tested_on": "yeast", "assay": "Natural spoilage of chicken salad, growth of yeast", "type": "cell-based", "details": "500 ppm Nisin", "method": "The chicken salad was freshly made and allowed to spoil naturally over time. To prevent the product from being spoiled by Lactic Acid Bacteria (LAB), which can cause an accumulation of lactic acid reducing the pH over time, Nisin preparation (500 ppm) was added. Treatments included a no preservative Control, 500 ppm Nisin, 0.1% Potassium sorbate +500 ppm Nisin (Ps+N), and 1% Bacillus fermentate +500 ppm Nisin (BA+N). Usage rates were in the range of typical inclusion in finished foods.", "data": [{"substance": "nisin", "values": [{"measurement": "yeast counts compared to Bacillus-treated samples", "value": "rose much higher"}]}]}
